O=C(/C=C/c1cn(-c2ccccc2)nc1-c1ccccc1Cl)c1nc2ccccc2[nH]1
solubility (mole fraction)
Conditions | in acetonitrile | in ethanol | in ethyl acetate | in methanol | in n-butanol | in n-pentanol | in n-propanol
298.15 K | 1.78e-05 | 0.000105 | 0.00077 | 9.04e-05 | 0.000294 | 0.000354 | 0.000157
303.15 K | 6e-05 | 0.000125 | 0.00095 | 0.000116 | 0.00033 | 0.0004 | 0.000167
308.15 K | 0.000101 | 0.000145 | 0.00107 | 0.000133 | 0.000354 | 0.000448 | 0.000177
313.15 K | 0.00014 | 0.000157 | 0.0012 | 0.000149 | 0.0004 | 0.00051 | 0.000189
318.15 K | 0.000187 | 0.000179 | 0.00135 | 0.000168 | 0.000445 | 0.0006 | 0.000205
323.15 K | 0.00021 | 0.000195 | 0.00145 | 0.000187 | 0.0005 | 0.00069 | 0.00022
328.15 K | 0.000241 | 0.000217 | 0.00157 | 0.000209 | 0.000533 | 0.00074 | 0.000244

O=C(/C=C/c1cn(-c2ccccc2)nc1-c1ccccc1)c1nc2ccccc2[nH]1
solubility (mole fraction)
Conditions | in acetonitrile | in ethanol | in ethyl acetate | in methanol | in n-butanol | in n-pentanol | in n-propanol
298.15 K | 5.71e-05 | 8.48e-05 | 0.000159 | 5.54e-05 | 0.000248 | 0.000257 | 0.000135
303.15 K | 6.5e-05 | 9.4e-05 | 0.000195 | 6.53e-05 | 0.000275 | 0.000332 | 0.000152
308.15 K | 7.61e-05 | 0.000106 | 0.000243 | 8.08e-05 | 0.000299 | 0.000406 | 0.000179
313.15 K | 9.3e-05 | 0.000123 | 0.000312 | 8.83e-05 | 0.000335 | 0.000475 | 0.000189
318.15 K | 0.000102 | 0.000135 | 0.000362 | 9.87e-05 | 0.000374 | 0.000535 | 0.000215
323.15 K | 0.00012 | 0.000146 | 0.000403 | 0.000115 | 0.000425 | 0.000592 | 0.000226
328.15 K | 0.000132 | 0.00016 | 0.000463 | 0.000123 | 0.000465 | 0.000639 | 0.000255
